The data set can be described thus: Stability in formulation: creatine in oil-in-water emulsion stored at 45° C. Format: physicochemical. How it is done: 1.5% of the microcapsules from Example 4 were stirred into an oil-in-water emulsion and stored at T=45° C.

`CN(CC(=O)O)C(=N)N` [Free creatine, creatine]: the “creatine [%]” value (0 weeks) is on record as 100% and the “creatine [%]” value (stored at T=45° C., 5 weeks) was 40%.

(Values after patent publication US20080274149A1, “Encapsulation and Controlled Release of Biologically Active Ingredients with Enzymatically Degradable Microparticulate, Hyperbranched Polymers” (priority 2005, published 2008).)
